Assay results as given in ChEMBL document CHEMBL1201862, “PubChem BioAssay data set” (2004).
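1) Cells in 96-well plates. 2) Compound, 48 h, 5 concentrations. 3) Linear interpolation between surrounding doses. 4) Unreached endpoint = highest concentration. The concentration for 50% growth inhibition is given as GI50.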 Activity calls are given as the source filed them. No stated cut-off is given here; in the data, active = GI50 up to about 1.1 µM and inactive = higher.

Key:
Test in all cases: NCI tumour cell line growth inhibition, 48 h
DMS-114 = system: DMS-114
MCF7 = system: MCF7
NCI-H23 = system: NCI-H23
SK-OV-3 = system: SK-OV-3
DMS-273 = system: DMS-273
NCI/ADR-RES = system: NCI/ADR-RES
SNB-75 = system: SNB-75
NCI-H226 = system: NCI-H226
M19-MEL = system: M19-MEL
HL-60 = system: HL-60
MOLT-4 = system: MOLT-4
A549 = system: A549
CAKI-1 = system: CAKI-1
HOP-18 = system: HOP-18
SF-295 = system: SF-295
KM-20L2 = system: KM-20L2
K562 = system: K562
CCRF-CEM = system: CCRF-CEM
Malme-3M = system: Malme-3M
HOP-62 = system: HOP-62
SN12C = system: SN12C
LXFL 529 = system: LXFL 529
SF-539 = system: SF-539
U-251 = system: U-251
786-0 = system: 786-0
DLD-1 = system: DLD-1
UO-31 = system: UO-31
RPMI-8226 = system: RPMI-8226
SK-MEL-28 = system: SK-MEL-28
SK-MEL-2 = system: SK-MEL-2
A498 = system: A498
NCI-H460 = system: NCI-H460
M14 = system: M14
UACC-62 = system: UACC-62
HOP-92 = system: HOP-92
ACHN = system: ACHN
SR = system: SR
SNB-78 = system: SNB-78
OVCAR-4 = system: OVCAR-4
SW-620 = system: SW-620
EKVX = system: EKVX
COLO 205 = system: COLO 205
TK-10 = system: TK-10
HCT-116 = system: HCT-116
NCI-H522 = system: NCI-H522
OVCAR-8 = system: OVCAR-8
KM12 = system: KM12
SNB-19 = system: SNB-19
SF-268 = system: SF-268
UACC-257 = system: UACC-257
SK-MEL-5 = system: SK-MEL-5
HT-29 = system: HT-29
LOX IMVI = system: LOX IMVI
HCC 2998 = system: HCC 2998
OVCAR-5 = system: OVCAR-5
RXF 393 = system: RXF 393

Measured: GI50

O=C(O)/C=C/c1c[nH]c(=O)[nH]c1=O
inactive: DMS-114 > 500 µM | MCF7 > 500 µM | NCI-H23 > 500 µM | SK-OV-3 > 500 µM | DMS-273 > 500 µM | NCI/ADR-RES > 344 µM | SNB-75 > 500 µM | NCI-H226 489 µM | M19-MEL > 500 µM | HL-60 > 446 µM | MOLT-4 > 281 µM | A549 > 500 µM | CAKI-1 > 500 µM | HOP-18 > 500 µM | SF-295 > 232 µM | KM-20L2 > 500 µM | K562 > 500 µM | CCRF-CEM > 316 µM

CCCSc1nc(COC(=O)NC)c(COC(=O)NC)n1C
inactive: DMS-114 58.2 µM | Malme-3M 86.5 µM | HOP-62 80.7 µM | SN12C 88.7 µM | LXFL 529 36.3 µM | SF-539 64.1 µM | U-251 98.2 µM | NCI-H23 54.2 µM | 786-0 69.5 µM | DLD-1 > 100 µM | DMS-273 48.9 µM | UO-31 57.1 µM | RPMI-8226 25 µM | SK-MEL-28 > 100 µM | SK-MEL-2 53.2 µM | SNB-75 49 µM | M19-MEL 88.1 µM | HL-60 29.4 µM | A498 46 µM | NCI-H460 39.7 µM | MOLT-4 21.2 µM | M14 > 100 µM | UACC-62 80.2 µM | HOP-92 56 µM | ACHN 23.9 µM | SR 29.4 µM | CAKI-1 32.8 µM | SNB-78 63.2 µM | K562 46.2 µM | OVCAR-4 93.3 µM | CCRF-CEM 29.6 µM

N=C(c1ccccc1)N(O)C1CCCCC1
inactive: DMS-114 > 100 µM | Malme-3M 9.38 µM | HOP-62 > 100 µM | SW-620 > 100 µM | SN12C > 100 µM | LXFL 529 > 100 µM | EKVX > 100 µM | SF-539 > 100 µM | U-251 > 100 µM | COLO 205 > 100 µM | NCI-H23 > 100 µM | 786-0 > 100 µM | DLD-1 > 100 µM | DMS-273 > 100 µM | TK-10 > 100 µM | UO-31 > 100 µM | HCT-116 > 100 µM | NCI-H522 > 100 µM | OVCAR-8 > 100 µM | SK-MEL-28 > 100 µM | SK-MEL-2 > 100 µM | SNB-75 81.3 µM | KM12 > 100 µM | NCI-H226 > 100 µM | M19-MEL > 100 µM | HL-60 > 100 µM | SNB-19 > 100 µM | SF-268 > 100 µM | NCI-H460 > 100 µM | UACC-257 > 100 µM | M14 > 100 µM | A549 > 100 µM | HOP-92 > 100 µM | SK-MEL-5 > 100 µM | SR > 100 µM | HT-29 > 100 µM | CAKI-1 > 100 µM | HOP-18 > 100 µM | SF-295 > 100 µM | KM-20L2 > 100 µM | SNB-78 > 100 µM | LOX IMVI > 100 µM | OVCAR-4 > 100 µM | HCC 2998 > 100 µM | OVCAR-5 > 100 µM | RXF 393 > 100 µM
